Measured values published in PMC11316111, “Mechanism of allosteric inhibition of human p97/VCP ATPase and its disease mutant by triazole inhibitors” (Communications Chemistry, 2024).
Several values for one entry are separate records, joined by “and”; a condition that tells them apart may be missing. Equal values may be shown once. Read-outs that look alike come from different tables or passages of the source.

Columns and labels:
[1] = system: HCT116 p97K512N; assay: Cellular viability, resistant HCT116 p97K512N; type: cell-based
Description: (§1) Drug-resistant HCT116 cell lines were derived using the method previously described and with certain modifications[70],[99]. […] Drug-resistant clones were transferred into a new plate for passaging, and subsequently used to study drug resistance and identify the p97 mutations.
(§2) Anti-proliferative activity was measured using CellTiter Glo® Luminescent Cell Viability Assay (Promega G7572) according to the manufacturer’s procedure as described. RMPI1640 containing 5% FBS and 1% penicillin-streptomycin was used as a cell viability medium. A standard curve of HCT116 was generated for finding the linear relationship between the relative luminescence unit and the number of viable cells. […] 24 h after seeding, 8 μL of media containing 5% DMSO was added to each well, and the plate was incubated for an additional 48 h. To test the anti-proliferative activity of p97 inhibitors, we seeded HCT116 at 750 cells per well according to the linear range. […] After 48 h of treatment, cell viability was measured by adding CellTiter Glo reagent and reading the signal with a BioTek Synergy Neo plate reader (Agilent, Santa Clara, CA). The IC50 values were calculated from four replicates using the percentage of growth of treated cells versus the DMSO control. The results were analyzed using GraphPad Prism 7.0 (GraphPad, Boston, MA).

[2] = system: HCT116 p97WT; assay: HCT116 proliferation assay (CellTiter Glo); type: cell-based; parameters: key to cellular viability of HCT116: % of DMSO control viability; conditions: for cellular viability of HCT116 / viability at 0.06 µM / viability at 0.17 µM / viability at 0.52 µM / viability at 1.6 µM / viability at 4.7 µM / viability at 14 µM / viability at 42.1 µM: single replicates; for viability at 0.06 µM: HCT-116, 0.06 µM; for viability at 0.06 µM / viability at 0.17 µM / viability at 0.52 µM / viability at 1.6 µM / viability at 4.7 µM / viability at 14 µM / viability at 42.1 µM: read-out: cellular viability of HCT116; for viability at 0.17 µM: HCT-116, 0.17 µM; for viability at 0.52 µM: HCT-116, 0.52 µM; for viability at 1.6 µM: HCT-116, 1.60 µM; for viability at 4.7 µM: HCT-116, 4.70 µM; for viability at 14 µM: HCT-116, 14.0 µM; for viability at 42.1 µM: HCT-116, 42.1 µM
Description: as §2

[3] = system: HCT116 p97F618S; assay: Cellular viability, resistant HCT116 p97F618S; type: cell-based
Description: as §1, §2

[4] = system: Ub^G76V-GFP/ODD-Luc HeLa cells; assay: Cellular Ub^G76V-GFP accumulation assay; type: cell-based; conditions: Table S3, four replicates, read-out: UbG76V-GFP EC50
Description: ImageXpress high-content confocal microscope (Molecular Devices, LLC., San Jose, CA) was used to image cells at GFP channel. The percentage of Ub^G76V-GFP accumulation (%Acc) is calculated using the following formula: […]
The IC50 values were calculated by fitting the %Acc from four replicates with various concentrations of compounds using GraphPad Prism 7.0 (GraphPad, Boston, MA).

[5] = system: HCT116 p97P510S; assay: Cellular viability, resistant HCT116 p97P510S; type: cell-based
Description: as §1, §2

[6] = target: T1, wild-type p97 (p97^WT) (Homo sapiens, UniProt P55072); assay: p97 ATPase activity (Biomol Green), wild-type p97; type: biochemical; conditions: for IC50: 200 μM ATP, six replicates; for Ratio of IC50 values for mutants to IC50 values for wild-type p97, WT: WT/WT reference
T1 construct: made in house
Description: (§3) Results were calculated from 6 replicates using GraphPad Prism 7.0 (GraphPad Software, Boston, MA).

[7] = target: T2, p97^R155H (Homo sapiens, UniProt P55072, R155H); assay: p97 ATPase activity (Biomol Green), R155H mutant; type: biochemical; conditions: for IC50: 200 μM ATP, six replicates; for Ratio of IC50 values for mutants to IC50 values for wild-type p97, R155H: R155H/WT
T2 construct: enabling us to acquire high-resolution biomolecular structures of full-length p97; made in house
Description: as §3

[8] = target: T3, p97^F618S (Homo sapiens, UniProt P55072, F618S); assay: p97 ATPase activity (Biomol Green), F618S mutant; type: biochemical; conditions: for IC50: 200 μM ATP, six replicates; for Ratio of IC50 values for mutants to IC50 values for wild-type p97, F618S: F618S/WT
T3 construct: made in house
Description: as §3

[9] = target: T4, p97^N616F (Homo sapiens, UniProt P55072, N616F); assay: p97 ATPase activity (Biomol Green), N616F mutant; type: biochemical; conditions: for IC50: 200 μM ATP, six replicates; for Ratio of IC50 values for mutants to IC50 values for wild-type p97, N616F: N616F/WT
T4 construct: made in house
Description: as §3

[10] = target: T5, p97^K512N (Homo sapiens, UniProt P55072, K512N); assay: p97 ATPase activity (Biomol Green), K512N mutant; type: biochemical; conditions: for IC50: 200 μM ATP, six replicates; for Ratio of IC50 values for mutants to IC50 values for wild-type p97, K512N: K512N/WT
T5 construct: made in house
Description: as §3

[11] = target: T6, p97^P510S (Homo sapiens, UniProt P55072, P510S); assay: p97 ATPase activity (Biomol Green), P510S mutant; type: biochemical; conditions: for IC50: 200 μM ATP, six replicates; for Ratio of IC50 values for mutants to IC50 values for wild-type p97, P510S: P510S/WT
T6 construct: made in house
Description: as §3

[12] = Homo sapiens, HCT-116, Table S3, four replicates
[13] = Homo sapiens, HCT-116, Table S6, 48-hour treatment, read-out: Cell viability of HCT116 IC50
[14] = Homo sapiens, HCT-116, Table S3, cellular viability, four replicates, read-out: IC50 HCT116 p97WT

T4 sequence (P55072 whole entry N616F): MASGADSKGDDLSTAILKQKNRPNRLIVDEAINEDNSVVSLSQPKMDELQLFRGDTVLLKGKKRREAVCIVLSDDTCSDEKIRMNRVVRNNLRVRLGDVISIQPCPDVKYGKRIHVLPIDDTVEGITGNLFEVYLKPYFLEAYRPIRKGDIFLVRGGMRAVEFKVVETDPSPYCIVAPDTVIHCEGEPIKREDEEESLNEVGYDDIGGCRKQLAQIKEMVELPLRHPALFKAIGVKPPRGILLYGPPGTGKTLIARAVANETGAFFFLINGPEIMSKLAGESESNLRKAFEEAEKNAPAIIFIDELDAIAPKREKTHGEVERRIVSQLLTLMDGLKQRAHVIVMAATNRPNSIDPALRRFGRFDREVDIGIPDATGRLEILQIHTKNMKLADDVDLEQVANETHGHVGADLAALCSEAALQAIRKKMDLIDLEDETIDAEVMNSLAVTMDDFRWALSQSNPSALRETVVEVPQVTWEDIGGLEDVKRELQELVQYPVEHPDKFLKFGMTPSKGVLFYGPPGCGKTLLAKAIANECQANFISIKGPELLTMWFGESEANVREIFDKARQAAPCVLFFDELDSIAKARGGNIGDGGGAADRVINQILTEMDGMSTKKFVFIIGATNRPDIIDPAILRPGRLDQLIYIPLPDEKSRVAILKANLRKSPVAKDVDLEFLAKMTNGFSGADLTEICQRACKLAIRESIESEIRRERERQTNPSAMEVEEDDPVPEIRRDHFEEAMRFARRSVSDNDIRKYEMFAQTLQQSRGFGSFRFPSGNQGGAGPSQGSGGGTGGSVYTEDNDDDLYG
T5 sequence (P55072 whole entry K512N): as the sequence (P55072 whole entry N616F) above, with K512N, F616N counted along it
T2 sequence (P55072 whole entry R155H): as the sequence (P55072 whole entry N616F) above, with R155H, F616N counted along it
T6 sequence (P55072 whole entry P510S): as the sequence (P55072 whole entry N616F) above, with P510S, F616N counted along it
T3 sequence (P55072 whole entry F618S): as the sequence (P55072 whole entry N616F) above, with F616N, F618S counted along it
T1 sequence (P55072 whole entry): as the sequence (P55072 whole entry N616F) above, with F616N counted along it

Compound	IC50 [2, 13] [nM]	EC50 ([4]; Homo sapiens, HeLa) [nM]	IC50 [5, 12] [nM]	IC50 [2, 14] [nM]	% ATPase activity ([6]; inhibitor 0.000905 µM) [%]	% ATPase activity ([6]; inhibitor 0.002716 µM) [%]	% ATPase activity ([6]; inhibitor 0.008148 µM) [%]	% ATPase activity ([6]; inhibitor 0.024444 µM) [%]	% ATPase activity ([6]; inhibitor 0.073333 µM) [%]	% ATPase activity ([6]; inhibitor 0.220000 µM) [%]	IC50 [7] [nM]	Ratio of IC50 values for mutants to IC50 values for wild-type p97, R155H [7]	increase of IC50 versus p97^WT, F618S [8]	IC50 [8] [nM]	increase of IC50 versus p97^WT, N616F [9]	IC50 [9] [nM]	Ratio of IC50 values for mutants to IC50 values for wild-type p97, N616F [9]	increase of IC50 versus p97^WT, K512N [10] [fold]	IC50 [10] [nM]	Ratio of IC50 values for mutants to IC50 values for wild-type p97, K512N [10]	other results
Cc1cc2c(C(N)=O)cccc2n1-c1nc2c(c(NCc3ccccc3)n1)COCC2 [CB-5083, 1-[4-(benzylamino)-5H,7H,8H-pyrano[3d,[4]]pyrimidin-2-yl]-2-methyl-1H-indole-4-carboxamide, reference compound]	344	430	1000	–	–	–	–	–	–	–	–	–	–	–	–	–	–	–	–	–	IC50 [1, 12]: 500 nM; IC50 ([2]; Homo sapiens, HCT-116, read-out: IC50 HCT116 p97WT): 400 nM; IC50 [3, 12]: 600 nM
Cc1cc(OCc2nnc(SC3CCCC3)n2-c2cccnc2)ccc1-c1ccc(S(C)(=O)=O)cc1 [NMS-873, reference compound]	–	2000	9200	2000	106	98	88	55	28	14	–	–	–	–	–	–	–	–	–	–	–
C[C@@H]1CN(C(=O)Cn2ncc(-c3cc(F)c(OCc4nnc(S[C@H]5C=CCCC5)n4-c4cccnc4)cc3F)n2)C[C@H](C)O1 [NSC819701]	–	660	–	830	102	90	71	31	23	14	15	0.9	more than 30 fold	1510	more than 30 fold	5340	334	7.5	120	7.5	Ratio of IC50 values for mutants to IC50 values for wild-type p97, F618S [8]: 94; increase of IC50 versus p97^WT, P510S [11]: more than 30 fold; IC50 [11]: 2800 nM; Ratio of IC50 values for mutants to IC50 values for wild-type p97, P510S [11]: 175; IC50 [6]: 16 nM; Ratio of IC50 values for mutants to IC50 values for wild-type p97, WT [6]: 1
CC1CCCC(C)N1CCOc1cc([N+](=O)[O-])ccc1C#N (stereo not shown) [UPCDC30733]	–	–	–	–	–	–	–	–	–	–	–	–	–	–	–	–	–	–	–	–	IC50 ([1]; Table S3, four replicates): 25000 nM; IC50 ([2]; Table S3, cellular viability, four replicates, read-out: IC50 HCT116 p97WT): 680 nM; IC50 ([3]; Table S3, four replicates): 21000 nM; EC50 [4]: 530 nM; IC50 ([5]; Table S3, four replicates): 9600 nM
CN1CCC(NC(=O)OCC#Cc2c(F)cc(OCc3nnc(S[C@H]4C=CCCC4)n3-c3cccnc3)cc2F)CC1 [NSC799462]	296	230	6900	390	98	90	67	27	15	16	11	0.7	31 fold	460	121 fold	1810	121	3	45	3	cellular viability of HCT116 ([2]; 0.06 µM): 105 (2×) and 108; cellular viability of HCT116 ([2]; 0.17 µM): 93 (2×) and 96; cellular viability of HCT116 ([2]; 1.60 µM, 1.6 µM): 4; cellular viability of HCT116 ([2]; 42.1 µM): 1; viability at 0.06 µM ([2]; Homo sapiens): 100%; viability at 0.17 µM ([2]; Homo sapiens): 94%; viability at 0.52 µM ([2]; Homo sapiens): 6%; viability at 1.6 µM ([2]; Homo sapiens): 5%; viability at 4.7 µM ([2]; Homo sapiens): 5%; viability at 14 µM ([2]; Homo sapiens): 5%; viability at 42.1 µM ([2]; Homo sapiens): 2%; Ratio of IC50 values for mutants to IC50 values for wild-type p97, F618S [8]: 31; increase of IC50 versus p97^WT, P510S [11]: 61 fold; IC50 [11]: 910 nM; Ratio of IC50 values for mutants to IC50 values for wild-type p97, P510S [11]: 61; IC50 [6]: 15 nM; Ratio of IC50 values for mutants to IC50 values for wild-type p97, WT [6]: 1
CCC(=O)NCC#Cc1cc(F)c(OCc2nnc(S[C@H]3C=CCCC3)n2-c2cccnc2)cc1F [NSC804515]	–	870	–	750	99	92	72	32	16	12	14	0.9	more than 30 fold	1750	more than 30 fold	> 6600	> 440	12	180	12	increase of IC50 versus p97^WT, P510S [11]: more than 30 fold; IC50 [11]: 2320 nM; Ratio of IC50 values for mutants to IC50 values for wild-type p97, P510S [11]: 155; IC50 [6]: 15 nM; Ratio of IC50 values for mutants to IC50 values for wild-type p97, WT [6]: 1
CN1CCC(NC(=O)OCC#Cc2cc(F)c(OCc3nnc(S[C@H]4C=CCCC4)n3-c3cccnc3)cc2F)CC1 [UPCDC30766]	296	270	10300	290	–	–	–	–	–	–	–	–	–	–	–	–	–	–	–	–	IC50 [1, 12]: 7300 nM; cellular viability of HCT116 ([2]; 0.06 µM): 99 and 98 and 101; cellular viability of HCT116 ([2]; 0.17 µM): 95 and 90; cellular viability of HCT116 ([2]; 0.52 µM): 6; cellular viability of HCT116 ([2]; 14.0 µM): 3; cellular viability of HCT116 ([2]; 42.1 µM): 1; viability at 0.06 µM ([2]; Homo sapiens): 94%; viability at 0.17 µM ([2]; Homo sapiens): 97%; viability at 0.52 µM ([2]; Homo sapiens): 5%; viability at 1.6 µM ([2]; Homo sapiens): 4%; viability at 4.7 µM ([2]; Homo sapiens): 5%; viability at 14 µM ([2]; Homo sapiens): 4%; viability at 42.1 µM ([2]; Homo sapiens): 2%
